The text below walks through data of ChEMBL document CHEMBL5465560, “Selectivity Literature for EUbOPEN Chemogenomic Library” (2024).

Bounds are passed on as bounds.

For test [1], the target named is Serine/threonine-protein kinase Nek7 (Homo sapiens) (UniProt Q8TDX7). The test is described as follows: Selectivity interaction (Ambit KINOMEscan and KiNATiv profiling in Jurkat cells) EUB0000090b NEK7. To be noted: at 1 µM. The format is cell-based.
In test [2] the target is Death-associated protein kinase 3 (Homo sapiens) (UniProt O43293). The test is described as follows: Selectivity interaction (KinomeScan (DiscoverX)) EUB0000666a DAPK3. The note with it: at 10 µM.
The target in test [3] is Calcium/calmodulin-dependent protein kinase type II subunit alpha (Homo sapiens, UniProt Q9UQM7). The test is described as follows: Selectivity interaction (KinomeScan (DiscoverX)) EUB0000229b CAMK2A. The note with it: at 10 µM.
For test [4], the target named is Ribosomal protein S6 kinase beta-1 (Homo sapiens, UniProt P23443). The test is described as follows: Selectivity interaction (ActivX KiNativ screen (ex vivo kinase selectivity in human PBMCs)) EUB0001619a RPS6KB1. In kind it is cell-based. To be noted: PBMC, at 1 µM.
Test [5] deals with Serine/threonine-protein kinase PAK 2 (Homo sapiens) (UniProt Q13177). The test is described as follows: Selectivity interaction (Kinase panel (Eurofins)) EUB0001564a PAK2. The note with it: at 1 µM.
Test [6] has as its target Tyrosine-protein kinase Srms (Homo sapiens) (UniProt Q9H3Y6). The test is described as follows: Selectivity interaction (Kinase panel (Invitrogen)) EUB0000639a SRMS. The note with it: at 200 nM.
Test [7] has as its target Macrophage colony-stimulating factor 1 receptor (Homo sapiens) (UniProt P07333). The test is described as follows: Selectivity interaction (Kinase screening (Nanosyn)) EUB0000604a CSF1R.
Test [8] deals with Mast/stem cell growth factor receptor Kit (Homo sapiens, UniProt P10721).
Test [9] deals with T1, Dual specificity mitogen-activated protein kinase kinase 7 (Homo sapiens) (UniProt O14733).
T1 sequence (whole entry): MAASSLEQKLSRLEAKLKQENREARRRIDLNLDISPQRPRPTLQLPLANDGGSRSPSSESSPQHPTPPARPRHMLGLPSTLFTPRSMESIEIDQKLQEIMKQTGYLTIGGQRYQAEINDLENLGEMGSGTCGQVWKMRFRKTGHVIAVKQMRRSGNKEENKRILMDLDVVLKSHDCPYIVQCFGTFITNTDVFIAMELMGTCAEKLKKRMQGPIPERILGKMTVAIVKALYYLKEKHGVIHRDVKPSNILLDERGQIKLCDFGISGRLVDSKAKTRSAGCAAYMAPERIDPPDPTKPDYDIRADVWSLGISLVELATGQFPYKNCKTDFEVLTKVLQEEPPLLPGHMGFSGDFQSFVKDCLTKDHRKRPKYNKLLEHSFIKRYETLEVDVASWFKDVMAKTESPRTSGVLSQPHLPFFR
Briefly: Selectivity interaction (KinomeScan (DiscoverX)) EUB0001049a MAP2K7. The note with it: at 1 µM.

Test [10] deals with Serine/threonine-protein kinase PLK2 (Homo sapiens, UniProt Q9NYY3). The test is described as follows: Selectivity interaction (KinomeScan (DiscoverX)) EUB0000695a PLK2. The note with it: at 100 nM.
The target in test [11] is Serine/threonine-protein kinase pim-1 (Homo sapiens, UniProt P11309). The test is described as follows: Selectivity interaction (ProQinase) EUB0000171b PIM1.
The target in test [12] is Fibroblast growth factor receptor 1 (Homo sapiens, UniProt P11362). Briefly: Selectivity interaction (KinomeScan (DiscoverX)) EUB0000092b FGFR1. To be noted: at 10 µM.
In test [13] the target is Mitogen-activated protein kinase kinase kinase kinase 4 (Homo sapiens, UniProt O95819). Briefly: Selectivity interaction (KinomeScan (DiscoverX)) EUB0000092b MAP4K4. To be noted: at 10 µM.
Test [14] deals with Mitogen-activated protein kinase kinase kinase 4 (Homo sapiens) (UniProt Q9Y6R4). The test is described as follows: Selectivity interaction (KinomeScan (DiscoverX)) EUB0000092b MAP3K4. To be noted: at 10 µM.
Test [15] has as its target BMP-2-inducible protein kinase (Homo sapiens) (UniProt Q9NSY1). Briefly: Selectivity interaction (Kinase panel (DSF assay)) EUB0001559a BMP2K. (In general: In DSF a fluorescence change marks the thermal transition of the protein.)
Test [16] concerns the target T2, Tyrosine-protein kinase receptor TYRO3 (Homo sapiens) (UniProt Q06418).
T2 sequence (whole entry): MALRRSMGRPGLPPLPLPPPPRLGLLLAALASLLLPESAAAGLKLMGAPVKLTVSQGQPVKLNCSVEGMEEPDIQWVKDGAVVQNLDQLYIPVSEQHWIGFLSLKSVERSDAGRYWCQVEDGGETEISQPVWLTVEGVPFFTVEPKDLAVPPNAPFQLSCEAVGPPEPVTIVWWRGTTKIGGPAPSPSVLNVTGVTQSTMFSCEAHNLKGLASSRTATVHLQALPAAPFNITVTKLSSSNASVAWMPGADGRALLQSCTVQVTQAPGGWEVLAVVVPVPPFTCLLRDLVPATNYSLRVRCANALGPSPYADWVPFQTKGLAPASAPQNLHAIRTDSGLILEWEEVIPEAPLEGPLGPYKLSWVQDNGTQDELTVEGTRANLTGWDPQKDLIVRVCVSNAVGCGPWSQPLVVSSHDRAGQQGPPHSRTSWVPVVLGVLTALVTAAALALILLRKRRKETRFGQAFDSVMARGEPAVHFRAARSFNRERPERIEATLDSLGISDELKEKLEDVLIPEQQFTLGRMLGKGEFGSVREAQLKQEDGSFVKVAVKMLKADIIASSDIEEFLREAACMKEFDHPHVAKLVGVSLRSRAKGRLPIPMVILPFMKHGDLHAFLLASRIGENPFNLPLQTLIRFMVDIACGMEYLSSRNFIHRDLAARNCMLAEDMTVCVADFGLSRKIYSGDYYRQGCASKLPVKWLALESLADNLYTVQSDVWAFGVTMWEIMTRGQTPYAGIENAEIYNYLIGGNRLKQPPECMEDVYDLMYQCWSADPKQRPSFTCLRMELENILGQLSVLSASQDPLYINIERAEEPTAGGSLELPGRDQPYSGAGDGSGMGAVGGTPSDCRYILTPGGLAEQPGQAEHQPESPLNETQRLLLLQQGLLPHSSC
The test is described as follows: Selectivity interaction (KinomeScan (DiscoverX)) EUB0000618a TYRO3. To be noted: at 10 µM.

Serine/threonine-protein kinase pim-1, sequence (P11309 whole entry, looked up): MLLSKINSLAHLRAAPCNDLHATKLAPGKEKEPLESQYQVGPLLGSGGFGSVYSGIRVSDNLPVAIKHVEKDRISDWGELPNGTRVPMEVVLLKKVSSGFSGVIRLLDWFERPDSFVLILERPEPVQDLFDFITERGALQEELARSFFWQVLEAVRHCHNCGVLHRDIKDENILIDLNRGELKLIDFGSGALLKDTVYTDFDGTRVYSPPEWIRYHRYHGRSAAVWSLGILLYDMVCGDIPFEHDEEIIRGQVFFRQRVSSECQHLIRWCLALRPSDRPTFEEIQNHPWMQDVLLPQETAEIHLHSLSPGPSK
Serine/threonine-protein kinase Nek7 (Homo sapiens), sequence (Q8TDX7 whole entry, looked up): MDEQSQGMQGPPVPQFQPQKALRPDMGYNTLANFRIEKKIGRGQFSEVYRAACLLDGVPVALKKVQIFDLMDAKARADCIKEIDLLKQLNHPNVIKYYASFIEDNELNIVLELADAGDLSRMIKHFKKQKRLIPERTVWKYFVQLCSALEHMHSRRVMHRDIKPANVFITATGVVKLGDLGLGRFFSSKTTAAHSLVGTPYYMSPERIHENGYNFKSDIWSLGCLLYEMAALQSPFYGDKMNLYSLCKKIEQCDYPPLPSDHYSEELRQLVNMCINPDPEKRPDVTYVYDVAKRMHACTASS
Mast/stem cell growth factor receptor Kit, sequence (P10721 whole entry): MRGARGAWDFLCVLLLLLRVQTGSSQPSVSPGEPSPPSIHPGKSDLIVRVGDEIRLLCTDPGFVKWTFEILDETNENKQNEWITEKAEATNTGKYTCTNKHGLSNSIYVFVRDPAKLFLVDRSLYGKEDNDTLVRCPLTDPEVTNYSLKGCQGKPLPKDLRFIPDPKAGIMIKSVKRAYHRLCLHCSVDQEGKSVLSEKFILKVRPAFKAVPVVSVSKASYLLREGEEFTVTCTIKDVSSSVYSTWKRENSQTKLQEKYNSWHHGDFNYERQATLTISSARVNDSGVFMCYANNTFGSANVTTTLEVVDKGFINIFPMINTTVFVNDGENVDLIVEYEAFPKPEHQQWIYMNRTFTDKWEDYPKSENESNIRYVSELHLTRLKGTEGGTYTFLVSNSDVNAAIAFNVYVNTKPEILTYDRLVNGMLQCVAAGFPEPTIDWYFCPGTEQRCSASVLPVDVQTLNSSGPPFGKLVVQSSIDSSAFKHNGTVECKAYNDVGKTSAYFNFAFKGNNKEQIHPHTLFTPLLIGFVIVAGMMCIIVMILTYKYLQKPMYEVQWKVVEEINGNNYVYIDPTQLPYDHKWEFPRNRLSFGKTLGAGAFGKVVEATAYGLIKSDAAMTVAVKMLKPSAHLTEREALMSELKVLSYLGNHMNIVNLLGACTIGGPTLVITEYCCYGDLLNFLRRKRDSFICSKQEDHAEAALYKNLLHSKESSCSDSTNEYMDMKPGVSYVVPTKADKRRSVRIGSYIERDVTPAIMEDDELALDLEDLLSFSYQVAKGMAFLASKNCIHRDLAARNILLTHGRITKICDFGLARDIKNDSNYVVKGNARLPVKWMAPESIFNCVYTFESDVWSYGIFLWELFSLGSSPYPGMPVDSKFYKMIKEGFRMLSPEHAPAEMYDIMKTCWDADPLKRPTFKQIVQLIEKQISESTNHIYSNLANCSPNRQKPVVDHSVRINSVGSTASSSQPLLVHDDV
Serine/threonine-protein kinase PLK2, sequence (Q9NYY3 whole entry, looked up): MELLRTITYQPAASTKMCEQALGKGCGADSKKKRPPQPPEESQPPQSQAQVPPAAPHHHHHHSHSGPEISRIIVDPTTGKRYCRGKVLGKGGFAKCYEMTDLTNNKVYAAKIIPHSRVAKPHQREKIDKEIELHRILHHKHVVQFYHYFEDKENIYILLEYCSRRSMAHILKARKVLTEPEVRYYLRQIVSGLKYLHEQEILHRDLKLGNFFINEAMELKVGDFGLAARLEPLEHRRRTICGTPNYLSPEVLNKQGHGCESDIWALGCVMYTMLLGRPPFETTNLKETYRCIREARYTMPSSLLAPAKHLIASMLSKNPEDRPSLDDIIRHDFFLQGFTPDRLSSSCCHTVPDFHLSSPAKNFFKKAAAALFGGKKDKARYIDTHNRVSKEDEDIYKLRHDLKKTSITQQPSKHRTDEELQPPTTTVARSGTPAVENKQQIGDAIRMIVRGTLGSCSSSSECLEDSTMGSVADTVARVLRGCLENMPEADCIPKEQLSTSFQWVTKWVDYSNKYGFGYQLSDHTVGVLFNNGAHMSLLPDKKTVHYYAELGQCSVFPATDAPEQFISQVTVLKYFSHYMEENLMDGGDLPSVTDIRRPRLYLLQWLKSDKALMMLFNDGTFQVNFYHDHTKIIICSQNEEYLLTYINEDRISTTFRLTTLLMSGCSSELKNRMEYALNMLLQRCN
Fibroblast growth factor receptor 1, sequence (P11362 22-822 limits assumed): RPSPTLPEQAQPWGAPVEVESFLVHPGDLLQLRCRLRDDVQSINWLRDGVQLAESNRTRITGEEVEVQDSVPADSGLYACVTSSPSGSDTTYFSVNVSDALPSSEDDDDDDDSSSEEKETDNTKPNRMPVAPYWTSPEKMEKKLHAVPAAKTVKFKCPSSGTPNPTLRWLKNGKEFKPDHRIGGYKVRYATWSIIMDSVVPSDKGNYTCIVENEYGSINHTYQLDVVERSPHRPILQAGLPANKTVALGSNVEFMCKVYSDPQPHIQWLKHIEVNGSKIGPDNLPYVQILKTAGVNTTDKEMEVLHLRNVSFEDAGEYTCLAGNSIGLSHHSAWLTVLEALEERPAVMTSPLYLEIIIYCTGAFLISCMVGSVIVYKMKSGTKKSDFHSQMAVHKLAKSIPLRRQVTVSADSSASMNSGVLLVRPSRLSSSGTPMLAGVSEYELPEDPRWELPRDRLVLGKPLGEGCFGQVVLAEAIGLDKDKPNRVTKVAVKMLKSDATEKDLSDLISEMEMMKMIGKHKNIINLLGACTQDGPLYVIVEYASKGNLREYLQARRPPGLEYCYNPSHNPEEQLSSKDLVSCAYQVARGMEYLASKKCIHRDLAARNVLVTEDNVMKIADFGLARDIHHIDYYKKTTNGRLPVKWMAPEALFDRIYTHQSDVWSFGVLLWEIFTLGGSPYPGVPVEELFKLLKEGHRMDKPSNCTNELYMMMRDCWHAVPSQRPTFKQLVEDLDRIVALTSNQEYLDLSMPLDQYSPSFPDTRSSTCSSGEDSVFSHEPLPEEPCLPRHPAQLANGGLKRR
Tyrosine-protein kinase Srms (Homo sapiens), sequence (Q9H3Y6 whole entry): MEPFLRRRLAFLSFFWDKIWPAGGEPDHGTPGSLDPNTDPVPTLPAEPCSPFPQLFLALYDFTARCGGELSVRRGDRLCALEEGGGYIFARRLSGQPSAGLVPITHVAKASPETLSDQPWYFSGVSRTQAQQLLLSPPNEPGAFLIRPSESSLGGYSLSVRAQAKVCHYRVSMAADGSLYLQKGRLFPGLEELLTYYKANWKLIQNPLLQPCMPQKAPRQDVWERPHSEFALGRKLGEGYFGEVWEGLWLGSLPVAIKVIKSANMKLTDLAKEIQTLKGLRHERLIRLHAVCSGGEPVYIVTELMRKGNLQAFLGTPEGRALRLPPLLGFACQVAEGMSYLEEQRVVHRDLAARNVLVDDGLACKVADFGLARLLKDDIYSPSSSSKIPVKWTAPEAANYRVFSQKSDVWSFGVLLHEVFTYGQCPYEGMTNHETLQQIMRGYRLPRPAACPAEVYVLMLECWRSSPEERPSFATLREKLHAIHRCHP
Ribosomal protein S6 kinase beta-1, sequence (P23443 whole entry, looked up): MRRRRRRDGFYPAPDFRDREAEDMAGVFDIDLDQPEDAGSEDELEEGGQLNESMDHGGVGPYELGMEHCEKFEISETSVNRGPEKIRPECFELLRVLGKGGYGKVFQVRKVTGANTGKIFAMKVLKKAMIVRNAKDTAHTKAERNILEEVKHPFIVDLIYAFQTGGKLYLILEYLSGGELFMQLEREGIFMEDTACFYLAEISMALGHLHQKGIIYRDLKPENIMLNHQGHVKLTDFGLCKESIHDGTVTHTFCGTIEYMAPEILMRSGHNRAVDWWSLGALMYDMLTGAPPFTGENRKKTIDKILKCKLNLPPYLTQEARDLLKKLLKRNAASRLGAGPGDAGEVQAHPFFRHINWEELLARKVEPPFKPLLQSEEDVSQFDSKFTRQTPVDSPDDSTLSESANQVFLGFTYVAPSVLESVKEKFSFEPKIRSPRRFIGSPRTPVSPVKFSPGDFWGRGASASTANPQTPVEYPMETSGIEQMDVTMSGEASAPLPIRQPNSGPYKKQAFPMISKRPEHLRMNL
Death-associated protein kinase 3 (Homo sapiens), sequence (O43293 whole entry, looked up): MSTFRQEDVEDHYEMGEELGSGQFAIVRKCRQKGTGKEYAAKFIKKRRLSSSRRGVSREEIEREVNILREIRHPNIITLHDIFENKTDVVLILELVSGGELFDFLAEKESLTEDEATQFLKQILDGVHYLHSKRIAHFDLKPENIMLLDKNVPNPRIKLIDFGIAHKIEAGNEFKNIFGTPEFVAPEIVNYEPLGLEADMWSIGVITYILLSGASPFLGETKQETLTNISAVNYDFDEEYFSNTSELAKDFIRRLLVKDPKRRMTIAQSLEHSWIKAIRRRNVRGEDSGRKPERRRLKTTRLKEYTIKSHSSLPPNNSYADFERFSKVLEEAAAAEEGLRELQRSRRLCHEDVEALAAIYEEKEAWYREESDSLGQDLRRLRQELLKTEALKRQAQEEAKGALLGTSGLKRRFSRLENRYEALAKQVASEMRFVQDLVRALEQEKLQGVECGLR
Calcium/calmodulin-dependent protein kinase type II subunit alpha, sequence (Q9UQM7 whole entry): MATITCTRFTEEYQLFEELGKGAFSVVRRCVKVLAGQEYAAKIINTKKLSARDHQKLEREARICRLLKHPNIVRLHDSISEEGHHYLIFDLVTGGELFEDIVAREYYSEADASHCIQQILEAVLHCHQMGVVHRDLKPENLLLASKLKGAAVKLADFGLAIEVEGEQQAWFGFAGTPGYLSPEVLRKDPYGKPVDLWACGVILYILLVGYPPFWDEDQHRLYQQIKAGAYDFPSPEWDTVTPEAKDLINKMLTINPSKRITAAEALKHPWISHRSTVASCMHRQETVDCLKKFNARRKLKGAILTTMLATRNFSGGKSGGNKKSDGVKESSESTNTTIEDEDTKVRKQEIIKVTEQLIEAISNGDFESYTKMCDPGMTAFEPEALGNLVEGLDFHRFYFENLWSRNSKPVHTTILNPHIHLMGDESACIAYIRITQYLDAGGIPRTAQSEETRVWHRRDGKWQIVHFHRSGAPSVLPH

On to `CN(C)C/C=C/C(=O)Nc1ccc(C(=O)N2CCCC(Nc3ncc(Cl)c(-c4c[nH]c5ccccc45)n3)C2)cc1` (configuration not stated), for which the % of control in [1] came out at 91%.
`O=C(NOC[C@H](O)CO)c1ccc(F)c(F)c1Nc1ccc(I)cc1F` displayed a % of control in test [2] of 100%.
Take `COc1cc(N(C)c2ccnc3ccc(C(F)(F)F)cc23)cc(OC)c1OC`: the % binding in test [3] was 77%.
`N#Cc1cccc(-c2c[nH]c3ncnc(N4CCOCC4)c23)c1` returned a % of inhibition in [4] of 11%.
The compound `CC[C@@H](Nc1c(C#N)c(-c2ccc(-c3cccc(C)c3F)cc2)nc2cnccc12)C(=O)O` [BAY-091] displayed a % of inhibition in test [5] of 24.9%.
The compound `CC[C@@H]1[C@H](F)C(=O)N[C@@H]1COc1nccc2cc(C(N)=O)c(OC)cc12` [ZIMLOVISERTIB] registered a % of inhibition in test [6] of 6.49%.
Compound `Cc1cnc(Nc2ccc(F)cc2Cl)nc1-c1c[nH]c(C(=O)N[C@H](CO)c2cccc(Cl)c2)c1` yielded a % of inhibition in [7] of 6%.
Usually IC50 stands for the concentration that inhibits the measured activity by half. On to `CCc1cccc(CC)c1NC(=O)c1nn(C)c2c1CCc1cnc(Nc3ccc(C(=O)NC4CCN(C)CC4)cc3OC(F)(F)F)nc1-2`, for which the half-maximal inhibitory concentration (IC50) in test [8] is over 10 µM.
`COc1cc(Nc2nc(C)cc(-c3cnn4nc(OC)ccc34)n2)cc(C(F)(F)F)c1` yielded a % of control in [9] of 99%.
Take `Cc1cc(F)c(C(=O)Nc2cccc(-c3nncn3C(C)C)n2)cc1-n1cnc(C2CC2)c1`: in [10], the % of control came out at 88%.
As to `C=CC(=O)Nc1cccc(C(=O)Nc2ccc(Nc3cc(-c4[nH]c(SC)nc4C)ccn3)cc2)c1`, the % of control in test [11] (at 1 µM) was 87%; in test [11] (at 5 µM), 67%.
With `CCC(=O)N1CCN(c2ccc(-n3c(=O)ccc4cnc5ccc(-c6cnc7ccccc7c6)cc5c43)cc2C(F)(F)F)CC1`, the % of control in test [12] came to 96%; in test [13], 5.2%; in [14], 47%.
In test [15], `CN(C(=O)c1cnn2cccnc12)c1cc2c(cc1N1CCOCC1)C(=O)N(C[C@@H](F)C(C)(C)O)C2` gave a dTM of -0.2 K.
Compound `O[C@H]1CC[C@H](Nc2ncc3nc(Nc4c(F)cc(F)cc4F)n([C@H]4CCOC4)c3n2)CC1` returned a % of control in test [16] of 100%.
